Patent US7964631B2, “Fused tricyclic compounds as inhibitors of tumor necrosis factor-α” (Piramal Life Sciences Limited, priority 2004, dated 2011)

Key:
[1] = test system: peripheral blood mononuclear cells (PBMC); experiment: Cytotoxicity of test compounds in PBMC, cell viability by MTS reagent; format: cell-based, human
Description: (§1) TNF-α production by LPS in peripheral blood mononuclear cells (PBMC) was measured according to the method described by Henry et al (J. Bioorg. Med. Chem. Lett., 8: 3335-3340, 1998). Briefly, blood was collected from healthy donors into Potassium EDTA vacutainer tubes (Vacutest Plast/Becton Dickinson). PBMC were isolated using gradient centrifugation in Ficoll-Paque solution (Pharmacia). Isolated PBMC were suspended in RPMI 1640 culture medium (Gibco BRL, Pasley, UK) containing 10% fetal bovine serum (FBS) (Hyclone, Utah, USA), 100 U/ml penicillin (Sigma Chemical Co. St Louis, Mo.) and 100 μg/ml streptomycin (Sigma Chemical Co. St Louis, Mo.). The cell concentration was adjusted to 1×10^6 cells/ml. The viability as determined by trypan blue dye exclusion was uniformly ≧98%. The cell suspension (100 μl) was added to the wells of a 96-well culture plate. Following cell plating, 79 μl of the culture medium and 1 μl of eight different concentrations of the test compounds (final concentration 0.03, 0.1, 0.3, 1, 3, 10, 30, 100 μM) dissolved in DMSO (dimethylsulfoxide, Sigma, Mo., USA) were added to the cells. The final concentration of DMSO was adjusted to 0.5%. The appropriate DMSO concentration was used as control. Rolipram (30 μM) was used as a standard compound. The plates were incubated for 30 min at 37° C. in an atmosphere of 5% CO2. Finally, 20 μl (10 μg/ml) per well of LPS, (Escherchia coli 0127:B8, Sigma Chemical Co., St. Louis, Mo.) was added, for a final concentration of 1 μg/ml. The plates were incubated at 37° C. for 4.5 h in an atmosphere of 5% CO2. To determine the cytotoxicity of the test compounds, the cell viability was assessed using MTS (3-(4,5-dimethylthiazol-2-yl)-5-(3-carboxymethoxyphenyl)-2-(4-sulfonyl)-2H-tetrazolium) reagent (Promega) after 4.5 h of incubation. Supernatants were harvested and assayed for TNF-α by ELISA as described by the manufacturer (R&D Systems, MN, BD Biosciences Pharmingen) or by cytotoxicity bioassay in L929 cells. The 50% inhibitory concentration (IC50) values were calculated by a nonlinear regression method using GraphPad software (Prism 3.03)

[2] = test system: TNF-α; experiment: LPS-induced TNF-α production in peripheral blood mononuclear cells (secondary screening); format: cell-based
Description: as §1

[3] = test system: TNF-α; experiment: Whole blood cell culture assay: LPS-induced TNF-α release (primary screening); format: cell-based, human; settings: test compound 1 μM, diluted whole blood of healthy donors, LPS 1 μg/ml, 4.5 h, vs DMSO control; for inhibition at 1 µM: Homo sapiens, Whole blood cell
Description: TNF-α production by lipopolysaccharide (LPS) in whole blood was measured according to the method described by Wilson et al (J. Immunol. Methods, 139: 233-240, 1991). Briefly, blood was collected from healthy donors into potassium EDTA vacutainer tubes (Vacutest Plast/Becton Dickinson) and diluted with RPMI 1640 culture medium (Gibco BRL, Pasley, UK) containing 100 U/ml penicillin and 100 μg/ml streptomycin, (100× solution, Sigma Chemical Co. St Louis, Mo.) with no added serum. The white blood cell count was adjusted to 1×10^6 cells/ml and 100 μl/well of the diluted blood was transferred into 96-well culture plates. Following cell plating, 79 μl of culture medium and 1 μl of the test compounds (final concentration 1 μM) dissolved in DMSO (dimethylsulfoxide, Sigma, Mo., USA) was added to the cells. The final concentration of DMSO was adjusted to 0.5%. 1 μl of vehicle (0.5% DMSO) was used as control. Rolipram (100 μM) was used as a standard compound. The plates were incubated for 30 min at 37° C. in an atmosphere of 5% CO2. Finally, 20 μl (10 μg/ml) per well of LPS (Escherchia coli 0127:B8, Sigma Chemical Co., St. Louis, Mo.) was added, for a final concentration of 1 μg/ml. Plates were incubated at 37° C. for 4.5 h in an atmosphere of 5% CO2. Supernatants were harvested and assayed for TNF-α by ELISA as described by the manufacturer (R&D Systems, MN) or by cytotoxicity bioassay in L929 cells. Percent inhibition of TNF-α release in comparison to the control was calculated.

[4] = 4.5 h, TNF-α production in PBMC, LPS 1 μg/ml, ELISA or L929 bioassay

melting point	IC50 [2, 4] [nM]	SMILES	% toxicity (10 μM), 5 h [1] [%]	also measured
190 to 191 °C	–	COC(=O)c1cc(C)c2c(c1)S(=O)(=O)Cc1cc(N(CCCl)CCCl)cc(Cl)c1O2	–	–
230 to 232 °C	–	CCN1CCN(c2cc(Cl)c3c(c2)CS(=O)(=O)c2cc(CO)cc(C)c2O3)CC1 [Example 34, [4-Chloro-2-(4-ethyl-piperazin-1-yl)-6-methyl-10,10-dioxo-10,11-dihydro-5-oxa-10lambda*6*-thia-dibenzo[a,d]cyclohepten-8-yl]-methanol]	–	–
278 to 280 °C	–	COC(=O)c1cc(C)c2c(c1)S(=O)(=O)Cc1cc(N)cc(Cl)c1N2 [Example 37, 2-Amino-4-chloro-6-methyl-10,10-dioxo-10,11-dihydro-5H-10lambda*6*-thia-5-aza-dibenzo[a,d]-cycloheptene-8-carboxylic acid methylester]	–	inhibition at 1 µM [3]: 33%
226 to 228 °C	–	CCC(=O)Nc1cc(Cl)c2c(c1)CS(=O)(=O)c1cc(C(=O)OC)cc(C)c1O2 [Example 6, 4-Chloro-6-methyl-10,10-dioxo-2-propionylamino-10,11-dihydro-5-oxa-10lambda*6*-thia-dibenzo[a,d]cycloheptene-8-carboxylic acid methyl ester]	–	inhibition at 1 µM [3]: 89%
202 to 204 °C	–	CCOC(=O)c1cc(C)c2c(c1)S(=O)(=O)Cc1cc(NC=O)cc(Cl)c1O2 [Example 10, 4-Chloro-2-formylamino-6-methyl-10,10-dioxo-10,11-dihydro-5-oxa-10lambda*6*-thia-dibenzo[a,d]cycloheptene-8-carboxylic acid ethyl ester]	–	–
280 °C (dec.)	200	COC(=O)Cc1cc(C)c2c(c1)S(=O)(=O)Cc1cc(N3CCNCC3)cc(Cl)c1O2.Cl [Example 33, (4-Chloro-6-methyl-10,10-dioxo-2-piperazine-1-yl-10,11-dihydro-5-oxa-10lambda*6*-thia-dibenzo[a,d]cyclohepten-8-yl)-acetic acid methyl ester hydrochloride]	29	inhibition at 1 µM [3]: 95%
199 to 201 °C	–	COC(=O)c1cc(C)c2c(c1)S(=O)(=O)Cc1cc(N(CCO)CCO)cc(Cl)c1O2 [Example 13, 2-[Bis-(2-hydroxy-ethyl)-amino]-4-chloro-6-methyl-10,10-dioxo-10,11-dihydro-5-oxa-10lambda*6*-thia-dibenzo[a,d]cycloheptene-8-carboxylic acid methyl ester]	–	–
–	–	COC(=O)c1cc(C)c2c(c1)S(=O)(=O)Cc1cc(NC=O)cc(Cl)c1N2 [Example 38, 4-Chloro-2-formylamino-6-methyl-10,10-dioxo-10,11-dihydro-5H-10-lambda*6*-thia-5-aza-dibenzo[a,d]-cycloheptene-8-carboxylic acid methyl ester]	10 ± 04	% inhibition of TNF-α release [3]: 45%; IC50 ([2]; TNF-α production in PBMC; LPS 1 μg/ml, 4.5 h; ELISA or L929 bioassay): 1200 ± 1580 nM
278 to 280 °C	–	CS(=O)(=O)O.Cc1cc(C(=O)O)cc2c1Oc1c(Cl)cc(N3CCNCC3)cc1CS2(=O)=O [Example 19, 4-Chloro-6-methyl-10,10-dioxo-2-piperazin-1-yl-10,11-dihydro-5-oxa-10lambda*6*-thia-dibenzo[a,d]cycloheptene-8-carboxylic acid mesylate]	–	–
279 to 281 °C	–	COC(=O)c1cc(C)c2c(c1)S(=O)(=O)Cc1cc(N3CCNCC3)cc(Cl)c1O2.CS(=O)(=O)O [Example 17, 4-Chloro-6-methyl-10,10-dioxo-2-piperazin-1-yl-10,11-dihydro-5-oxa-10lambda*6*-thia-dibenzo[a,d]cycloheptene-8-carboxylic acid methyl ester mesylate]	66	IC50 ([2]; TNF-α production in PBMC; LPS 1 μg/ml, 4.5 h; ELISA or L929 bioassay; mesylate): 100 nM
292 to 293 °C	–	COC(=O)c1cc(C)c2c(c1)S(=O)(=O)Cc1cc(NC(=O)CCl)cc(Cl)c1O2 [Example 4, 4-Chloro-2-(2-chloro-acetylamino)-6-methyl-10,10-dioxo-10,11-dihydro-5-oxa-10lambda*6*-thia-dibenzo[a,d]cycloheptene-8-carboxylic acid methyl ester]	–	–
> 320 °C	–	COC(=O)c1cc(C)c2c(c1)S(=O)(=O)Cc1cc(N3CCOCC3)cc(Cl)c1O2 [Example 30, 4-Chloro-6-methyl-2-morpholin-4-yl-10,10-dioxo-10,11-dihydro-5-oxa-10lambda*6*-thia-dibenzo[a,d]cycloheptene-8-carboxylic acid methyl ester]	–	–
–	840	COC(=O)c1cc(C)c2c(c1)S(=O)(=O)Cc1ccc(NCCN)c(Cl)c1O2.Cl [Example 31, 3-(2-Amino-ethylamino)-4-chloro-6-methyl-10,10-dioxo-10,11-dihydro-5-oxa-10lambda*6*-thia-dibenzo[a,d]cycloheptene-8-carboxylic acid methyl ester hydrochloride]	21	inhibition at 1 µM [3]: 66%
–	> 10000	COC(=O)c1ccc2c(c1)S(=O)(=O)Cc1ccccc1C2O (stereo not drawn) [Example 40, 5-Hydroxy-10,10-dioxo-10,11-dihydro-5H-10lambda*6*-thia-dibenzo[a,d]cycloheptene-8-carboxylic acid methyl ester]	8	–
–	8600 ± 1300	COC(=O)c1cc(C)c2c(c1)S(=O)(=O)Cc1cc(NC(=O)CO)cc(Cl)c1O2 [Example 5A, 4-Chloro-2-(2-hydroxy-acetylamino)-6-methyl-10,10-dioxo-10,11-dihydro-5-oxa-10lambda*6*-thia-dibenzo[a,d]cycloheptene-8-carboxylic acid methyl ester]	00	–
> 320 °C	550	COC(=O)c1cc(C)c2c(c1)[S+]([O-])Cc1cc(N3CCNCC3)cc(Cl)c1O2.Cl (stereo not drawn) [Example 15, 4-Chloro-6-methyl-10-oxo-2-piperazin-1-yl-10,11-dihydro-5-oxa-10lambda*4*-thia-dibenzo[a,d]cycloheptene-8-carboxylic acid methyl ester hydrochloride]	25	–

SMILES	melting point	IC50 [2, 4] [nM]	% toxicity (10 μM), 5 h [1] [%]	also measured
COC(=O)c1cc(C)c2c(c1)S(=O)(=O)Cc1cc(NC(=O)COC(C)=O)cc(Cl)c1O2 [Example 5B, 2-(2-Acetoxy-acetylamino)-4-chloro-6-methyl-10,10-dioxo-10,11-dihydro-5-oxa-10lambda*6*-thia-dibenzo[a,d]cycloheptene-8-carboxylic acid methyl ester]	–	9100 ± 1600	00	–
Cc1cc(C=O)cc2c1Oc1c(Cl)cc(N3CCNCC3)cc1CS2(=O)=O [Example 35, 4-Chloro-6-methyl-10,10-dioxo-2-piperazin-1-yl-10,11-dihydro-5-oxa-10lambda*6*-thia-dibenzo[a,d]cycloheptene-8-carbaldehyde]	–	1400	07	inhibition at 1 µM [3]: 45%
